From patent US6911449B2, “Inhibition of matrix metalloproteases by substituted biaryl oxobutyric acids” (Bayer Pharmaceuticals Corporation, priority 1996, dated 2005)

How the values were obtained:
MMP-3 = target: T1, MMP-3 (Homo sapiens, UniProt P08254); assay: P218 quenched fluorescence assay for MMP inhibition, MMP-3; assay type: biochemical; settings: 6 μM P218 substrate, 25 min at 37° C., pH 6.5; read-out: MMP-3 Fluorogenic IC50
T1 construct: made in house; host or cells: CHO cells
From the text: (§1) P218 Quenched Fluorescence Assay for MMP Inhibition:
(§2) The P218 quenched fluorescence assay (Microfluorometric Profiling Assay) is a modification of that originally described by Knight, et al., FEBS Lett. 296, 263 (1992) for a related substance and a variety of matrix metalloproteinases (MMPs) in cuvettes. The assay was run with each invention compound and the three MMPs, MMP-3, MMP-9 and MMP-2, analyzed in parallel, adapted as follows for a 96-well microtiter plate and a Hamilton AT® workstation.
(§3) P218 Fluorogenic Substrate: P218 is a synthetic substrate containing a 4-acetyl-7-methoxycoumarin (MCA) group in the N-terminal position and a 3-[2,4-dinitrophenyl]-L-2,3-diaminopropionyl (DPA) group internally. This is a modification of a peptide reported by Knight (1992) that was used as a substrate for matrix metalloproteinases. Once the P218 peptide is cleaved (putative clip site at the Ala-Leu bond), the fluorescence of the MCA group can be detected on a fluorometer with excitation at 328 nm and emission at 393 nm. P218 is currently being produced BACHEM exclusively for Bayer. P218 has the structure:
(§4) H-MCA-Pro-Lys-Pro-Leu-Ala-Leu-DPA-Ala-Arg-NH2 (MW 1332.2)
Recombinant Human CHO Stromelysin (MMP-3)
Recombinant Human CHO Pro-MMP-3: Human CHO pro-stromelysin-257 (pro-MMP-3) was expressed and purified as described by Housley, et al., J. Biol. Chem. 268, 4481 (1993).
Activation of Pro-MMP-3: Pro-MMP-3 at 1.72 μM (100 μg/mL) in 5 mM Tris at pH 7.5, 5 mM CaCl2, 25 mM NaCl, and 0.005% Brij-35 (MMP-3 activation buffer) was activated by incubation with TPCK (N-tosyl-(L)-phenylalanine chloromethyl ketone) trypsin (1:100 w/w to pro-MMP-3) at 25° C. for 30 min. The reaction was stopped by addition of soybean trypsin inhibitor (SBTI; 5:1 w/w to trypsin concentration). This activation protocol results in the formation of 45 kDa active MMP-3, which still contains the C-terminal portion of the enzyme.
(§5) Hamiltion Microlab AT Plus: The MMP-Profiling Assay is performed robotically on a Hamilton MicroLab AT Plus®. The Hamilton is programmed to: (1) serially dilute up to 11 potential inhibitors automatically from a 2.5 mM stock in 100% DMSO; (2) distribute substrate followed by inhibitor into a 96 well Cytofluor plate; and (3) add a single enzyme to the plate with mixing to start the reaction. Subsequent plates for each additional enzyme are prepared automatically by beginning the program at the substrate addition point, remixing the diluted inhibitors and beginning the reaction by addition of enzyme. In this way, all MMP assays were done using the same inhibitor dilutions.
(§6) Millipore Cytofluor II. Following incubation, the plate was read on a Cytofluor II fluorometric plate reader with excitation at 340 nm and emission at 395 nm with the gain set at 80.
(§7) Microfluorometric Reaction Buffer (MRB): Dilution of test compounds, enzymes, and P218 substrate for the microfluorometric assay were made in microfluorometric reaction buffer consisting of 50 mM 2-(N-morpholino)ethanesulfonic acid (MES) at pH 6.5 with 10 mM CaCl2, […] NaCl, 0.005% Brij-35 and 1% DMSO.
(§8) MMP Microfluorometric Profiling Assay. The assay is done with a final substrate concentration of 6 μM P218 and approximately 0.5 to 0.8 nM MMP with variable drug concentrations. The Hamilton is programmed to serially dilute up to 11 compounds from a 2.5 mM stock (100% DMSO) to 10× the final compounds concentrations in the assay. Initially, the instrument delivers various amounts of microfluoromentric reaction buffer (MRB) to a 96 tube rack of 1 ml Marsh dilution tubes. The instrument then picks up 20 μl of inhibitor (2.5 mM) from the sample rack and mixes it with a buffer in row A of the Marsh rack, resulting in a 50 μM drug concentration. The inhibitors are then serially diluted to 10, 5, 1, 0.2, 0.05 and 0.01 μM. […]

MMP-9 = target: T2, MMP-9 (Homo sapiens, UniProt P14780); assay: P218 quenched fluorescence assay for MMP inhibition, MMP-9; assay type: biochemical; settings: 6 μM P218 substrate, 25 min at 37° C., pH 6.5; read-out: MMP-9 Fluorogenic IC50
T2 construct: made in house
From the text: as §1, §2, §3, §4
Preparation of Human Recombinant Pro-Gelatinase B (MMP-9):
Recombinant Human Pro-MMP-9: Human pro-gelatinase B (pro-MMP-9) derived from U937 cDNA as described by Wilhelm, et al. J. Biol. Chem. 264, 17213 (1989) was expressed as the full-length form using a baculovirus protein expression system. The pro-enzyme was purified using methods previously described by Hibbs, et al. J. Biol. Chem. 260, 2493 (1984).
Activation of Pro-MMP-9: […] 20 μg/mL in 50 mM Tris at pH 7.4, 10 mM CaCl2, 150 mM NaCl, and 0.005% Brij-35 (MMP-9 activation buffer) was activated by incubation with 0.5 mM p-aminophenylmercuric acetate (APMA) for 3.5 h at 37° C. The enzyme was dialyzed against the same buffer to remove the APMA.
as §5, §6, §7, §8

MMP-2 = MMP-2 (Homo sapiens, UniProt P08253); assay: biochemical; settings: MMP-2 Fluorogenic IC50
[1] = Child, et al., J. Pharm. Sci., 66, 466 (1977); cited from earlier work

T1 sequence (P08254 100-477): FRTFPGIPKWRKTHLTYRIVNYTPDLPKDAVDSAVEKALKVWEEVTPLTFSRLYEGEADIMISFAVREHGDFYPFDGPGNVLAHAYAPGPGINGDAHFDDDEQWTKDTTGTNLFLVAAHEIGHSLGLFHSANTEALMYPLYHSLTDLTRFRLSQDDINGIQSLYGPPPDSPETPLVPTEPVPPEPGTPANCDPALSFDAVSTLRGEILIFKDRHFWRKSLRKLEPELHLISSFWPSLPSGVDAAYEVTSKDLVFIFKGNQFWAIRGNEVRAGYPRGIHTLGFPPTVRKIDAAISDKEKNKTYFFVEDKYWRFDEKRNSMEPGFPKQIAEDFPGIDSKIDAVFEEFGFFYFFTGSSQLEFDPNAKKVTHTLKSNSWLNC
MMP-2, sequence (P08253 110-660): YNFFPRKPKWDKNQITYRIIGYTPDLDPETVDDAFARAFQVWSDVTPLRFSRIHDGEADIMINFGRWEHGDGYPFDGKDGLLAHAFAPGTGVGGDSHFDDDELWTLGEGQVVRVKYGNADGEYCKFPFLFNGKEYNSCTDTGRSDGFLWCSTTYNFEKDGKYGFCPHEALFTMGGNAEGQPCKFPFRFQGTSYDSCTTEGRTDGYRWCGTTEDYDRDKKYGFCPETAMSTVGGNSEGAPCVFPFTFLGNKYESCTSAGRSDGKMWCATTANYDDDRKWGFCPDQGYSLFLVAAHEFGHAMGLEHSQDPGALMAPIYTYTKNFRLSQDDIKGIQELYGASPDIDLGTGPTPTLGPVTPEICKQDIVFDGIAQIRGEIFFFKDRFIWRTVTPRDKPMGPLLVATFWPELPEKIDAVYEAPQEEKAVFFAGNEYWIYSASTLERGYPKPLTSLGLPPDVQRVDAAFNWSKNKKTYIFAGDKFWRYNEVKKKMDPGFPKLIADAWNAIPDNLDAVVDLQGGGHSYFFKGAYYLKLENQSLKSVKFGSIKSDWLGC
T2 sequence (P14780 107-707 limits assumed): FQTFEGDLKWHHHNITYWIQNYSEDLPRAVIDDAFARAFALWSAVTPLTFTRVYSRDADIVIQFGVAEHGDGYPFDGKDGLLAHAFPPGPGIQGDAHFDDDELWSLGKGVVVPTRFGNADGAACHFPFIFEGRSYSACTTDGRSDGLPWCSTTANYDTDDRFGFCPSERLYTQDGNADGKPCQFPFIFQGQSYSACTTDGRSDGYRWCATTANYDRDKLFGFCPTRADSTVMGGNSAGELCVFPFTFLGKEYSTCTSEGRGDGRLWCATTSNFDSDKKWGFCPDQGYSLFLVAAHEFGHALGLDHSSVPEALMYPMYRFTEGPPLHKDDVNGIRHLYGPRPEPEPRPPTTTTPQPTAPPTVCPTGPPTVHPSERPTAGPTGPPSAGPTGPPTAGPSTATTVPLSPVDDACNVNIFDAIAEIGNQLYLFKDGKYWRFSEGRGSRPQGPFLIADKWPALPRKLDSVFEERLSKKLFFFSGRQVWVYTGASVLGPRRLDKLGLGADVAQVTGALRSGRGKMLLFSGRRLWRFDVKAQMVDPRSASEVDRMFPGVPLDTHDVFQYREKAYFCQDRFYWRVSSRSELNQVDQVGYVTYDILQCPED

SMILES	IC50 (MMP-3) [nM]	IC50 (MMP-9) [nM]	IC50 (MMP-2) [nM]	activity as anti-inflammatory analgesic agents [1]	melting point [°C]
O=C(CC(CCn1nnc2ccccc2c1=O)C(=O)O)c1ccc(-c2ccc(Cl)cc2)cc1 (single isomer, unassigned) [Example 20, α-[2-(4′-chloro[1,1′-biphenyl]-4-yl)-2-oxoethyl]-4-oxo-1,2,3,-Benzotriazine-3(4H)-butanoic acid]	320	84	57	–	–
O=C(c1ccc(-c2ccc(Cl)cc2)cc1)C1CCC(Cn2ncc3ccccc3c2=O)C1C(=O)O (centres unmarked) [Example 5]	4.2	2.3	1.4	–	–
O=C(CC(C(=O)O)c1ccccc1)c1ccc(-c2ccccc2)cc1 (centres unmarked) [XLIX]	–	–	–	inactive	–
O=C(c1ccc(-c2ccc(Cl)cc2)cc1)C1CCC(CSC(=S)N2CCCC2)C1C(=O)O (centres unmarked) [Example 3]	31	67	21	–	177 to 178
O=C(CC(CCn1nnc2ccccc2c1=O)C(=O)O)c1ccc(-c2ccc(Cl)cc2)cc1 (single isomer, unassigned) [Example 21, α-[2-(4′-chloro[1,1′-biphenyl]-4-yl)-2-oxoethyl]-4-oxo-1,2,3,-Benzotriazine-3(4H)-butanoic acid]	6.5	2.1	1.5	–	–
O=C(CC(CCn1ncc2ccccc2c1=O)C(=O)O)c1ccc(-c2ccc(Cl)cc2)cc1 (stereo not drawn) [Example 18, R/S α-[2-(4′-chloro[1,1′-biphenyl]-4-yl)-2-oxoethyl]-1-oxo-2(1H)-phthalazinebutanoic acid]	59	32	13	–	–
CC(CC(=O)c1ccc(-c2ccccc2)cc1)C(=O)O (centres unmarked) [XLVII]	–	–	–	inactive	–
O=C(O)CC(C(=O)c1ccc(-c2ccccc2)cc1)c1ccccc1 (centres unmarked) [LXXVII]	–	–	–	inactive	–
O=C(c1ccc(-c2ccc(Cl)cc2)cc1)C1CCC(Cn2c(=O)oc3ccccc32)C1C(=O)O (centres unmarked) [Example 6]	4.1	4.3	0.5	–	–
O=C(O)C1[C@H](COCOCc2ccccc2)CC[C@@H]1C(=O)c1ccc(-c2ccc(Cl)cc2)cc1 (relative stereo) [Example 2]	17	24	9.5	–	112 to 130
